We go through two compounds from article PMC9533837 (Antiviral Research, 2003).

Values after ≈ are worked out from the molar mass of the structure shown. Like-named read-outs stand apart in the source and are kept apart here.

Data set [1] has as its system LLC-MK2 cells. The conditions noted are these: rhesus monkey.
The test system of data set [2] is VAR isolate Shahzaman. Kind of data set: organism not typed. The format is cell-based, variola. The conditions noted are these: Vero, read-out: IC50, VAR isolate Shahzaman.
Data set [3] has as its system VAR-BSH (1975 Bangladesh isolate of VAR major). The experiment in a line: organism not typed. To be noted: for IC50: Vero. Type of data set: cell-based, variola major.
Data set [4] relates to VAR isolate V77-1605. The experiment in a line: organism not typed. The format is cell-based, variola. The conditions noted are these: Vero, read-out: IC50, VAR isolate V77-1605.
Data set [5] concerns VAR-YAM (1946 Japan Yamada isolate of VAR major). The experiment in a line: organism not typed. Type of data set: cell-based, variola major. The conditions noted are these: for IC50: LLC-MK2, read-out: IC50 VAR-YAM LLC-MK2.
The test system of data set [6] is VAR isolate Juba. The experiment in a line: organism not typed. To be noted: Vero, read-out: IC50, VAR isolate Juba. The format is cell-based, variola.
The subject of data set [7] is VAR isolate Higgins. Kind of data set: organism not typed. To be noted: Vero, read-out: IC50, VAR isolate Higgins. Type of data set: cell-based, variola.
Data set [8] deals with VAC. The conditions noted are these: cited from earlier work.
Data set [9] deals with VAR isolate Rumbec. Kind of data set: organism not typed. The format is cell-based, variola. The conditions noted are these: Vero, read-out: IC50, VAR isolate Rumbec.
Data set [10] deals with VAR isolate Kali-Muthu. Kind of data set: organism not typed. To be noted: Vero, read-out: IC50, VAR isolate Kali-Muthu. Type of data set: cell-based, variola.
Data set [11] deals with VAC, including recombinant VAC. To be noted: mouse, in vivo; cited from earlier work.
The mark [12] stands for this setting: read-out: IC50, VAR isolate Bangladesh.

For the compound `Nc1ccn(C[C@@H](CO)OCP(=O)(O)O)c(=O)n1` [Cidofovir, 1-[(S)-3-hydroxy-2-(phosphonomethoxy)-propyl]cytosine], the “Cytotoxicity TC50 LLC-MK2” value in [1] was greater than 100 µg/mL. Moreover, the IC50 (commonly the concentration that inhibits the measured activity by half) in data set [2] came out at 11 µg/mL (≈ 39.4 µM); in data set [3] (120 h, read-out: apparent IC50), 10.9 µg/mL (≈ 39 µM); in data set [3] (setting [12]), 17 µg/mL (≈ 60.9 µM); in data set [3] (read-out: IC50 VAR-BSH Vero) it was 9.5 µg/mL (≈ 34 µM); in data set [4], 19 µg/mL (≈ 68.1 µM); in data set [5] it was 2.7 µg/mL (≈ 9.67 µM). The IC50 is 14 µg/mL (≈ 50.1 µM) in data set [6], 14 µg/mL (≈ 50.1 µM) in data set [7], 10 µg/mL (≈ 35.8 µM) in data set [9] and 11 µg/mL (≈ 39.4 µM) in data set [10]. For the same compound, the “Therapeutic index (TI) VAR-BSH Vero” value in data set [3] amounted to 10.5. The “Therapeutic index (TI) VAR-YAM LLC-MK2” value in [5] was found to be 37.0. Besides, in [8], the “activity in vivo, VAC mouse model” value is on record as “active in vivo”.

As for `NC(=O)c1ncn([C@@H]2O[C@H](CO)[C@@H](O)[C@H]2O)n1` [Ribavirin], the “Cytotoxicity TC50 LLC-MK2” value in data set [1] was greater than 100 µg/mL. Also, the IC50 in data set [2] stood at 15 µg/mL (≈ 61.4 µM); in data set [3] (setting [12]), 30 µg/mL (≈ 123 µM); in data set [3] (read-out: IC50 VAR-BSH Vero) it was 18.4 µg/mL (≈ 75.3 µM); in data set [4] it was 453 µg/mL (≈ 1850 µM); in data set [5], 3.4 µg/mL (≈ 13.9 µM); in data set [7] it was 48 µg/mL (≈ 197 µM). For the same compound, the “Therapeutic index (TI) VAR-BSH Vero” value in [3] was determined as 5.4. For the same compound, the “Therapeutic index (TI) VAR-YAM LLC-MK2” value in data set [5] is on record as 29.4. The “activity in murine tailpox models” value in [11] is given as “active”.
